From PubChem BioAssay AID328 (DTP/NCI, 2004)
Several values for one entry are separate records, joined by “and”; a condition that tells them apart may be missing. Equal values may be shown once. Toxic doses and inconclusive results are not listed.

Test system: BDF1 mice, P388 leukemia ip, median survival T/C
Assay: NCI In Vivo Anticancer Drug Screen. Data for tumor model P388 Leukemia (intraperitoneal) in B6D2F1 (BDF1) mice
Conditions: endpoint: median survival time, higher = longer survival
Method in brief: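 Antitumour effect was judged in vivo: survival in drug-treated mice, normalised to that of vehicle-dosed controls, gives the reported T/C.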

[1] = dose: 100.0 mg/kg/injection, schedule: Q04DX003 (ip), vehicle: saline sonified
[2] = dose: 50.0 mg/kg/injection, schedule: Q01DX009 (ip), vehicle: saline with Tween-80
[3] = dose: 100.0 mg/kg/injection, schedule: Q01DX009 (ip), vehicle: saline with Tween-80
[4] = dose: 200.0 mg/kg/injection, schedule: Q01DX009 (ip), vehicle: saline with Tween-80
[5] = dose: 25.0 mg/kg/injection, schedule: Q01DX009 (ip), vehicle: saline with Tween-80
[6] = dose: 100.0 mg/kg/injection, schedule: Q04DX003 (ip), vehicle: saline with Tween-80
[7] = dose: 200.0 mg/kg/injection, schedule: Q04DX003 (ip), vehicle: saline with Tween-80
[8] = dose: 400.0 mg/kg/injection, schedule: Q01DX009 (ip), vehicle: saline with Tween-80
[9] = dose: 400.0 mg/kg/injection, schedule: Q04DX003 (ip), vehicle: saline with Tween-80
[10] = dose: 50.0 mg/kg/injection, schedule: Q04DX003 (ip), vehicle: Klucel (hydroxypropylcellulose) (HPC)
[11] = dose: 100.0 mg/kg/injection, schedule: Q04DX003 (ip), vehicle: Klucel (hydroxypropylcellulose) (HPC)
[12] = dose: 200.0 mg/kg/injection, schedule: Q04DX003 (ip), vehicle: Klucel (hydroxypropylcellulose) (HPC)

Compound: CC1(C)N=C(N)N=C(N)N1c1cccc(Cl)c1
- T/C (dose: 1.9 mg/kg/injection, schedule: Q04DX003 (ip), vehicle: saline): 104 % of control
- T/C (dose: 2.9 mg/kg/injection, schedule: Q04DX003 (ip), vehicle: saline): 100 % of control
- T/C (dose: 10.0 mg/kg/injection, schedule: Q04DX003 (ip), vehicle: saline): 113 % of control
- T/C (dose: 18.0 mg/kg/injection, schedule: Q01DX009 (ip), vehicle: saline): 195 % of control
- T/C (dose: 18.7 mg/kg/injection, schedule: Q01DX009 (ip), vehicle: saline): 168 % of control
- T/C (dose: 28.0 mg/kg/injection, schedule: Q01DX009 (ip), vehicle: saline): 160 % of control and 209 % of control
- T/C (dose: 37.5 mg/kg/injection, schedule: Q04DX003 (ip), vehicle: saline): 175 % of control and 177 % of control
- T/C (dose: 40.0 mg/kg/injection, schedule: Q01DX009 (ip), vehicle: saline): 95 % of control
- T/C (dose: 42.0 mg/kg/injection, schedule: Q01DX009 (ip), vehicle: saline): 213 % of control
- T/C (dose: 56.25 mg/kg/injection, schedule: Q04DX003 (ip), vehicle: saline): 150 % of control

Compound: O=C(Nc1ccc([N+](=O)[O-])cc1)Nc1ccc([N+](=O)[O-])cc1
- T/C (dose: 50.0 mg/kg/injection, schedule: Q04DX003 (ip), vehicle: saline sonified): 86 % of control
- T/C [1]: 86 % of control
- T/C (dose: 200.0 mg/kg/injection, schedule: Q04DX003 (ip), vehicle: saline sonified): 90 % of control

Compound: COc1cccc(CCCC(=O)C(C)S(C)=O)c1 (stereo not drawn)
- T/C [2]: 112 % of control
- T/C [3]: 101 % of control
- T/C [4]: 110 % of control

Compound: CC1(C)N=C(N)N=C(N)N1c1ccc(CCC(=O)Nc2ccc(S(=O)(=O)F)cc2)cc1
- T/C (dose: 0.88 mg/kg/injection, schedule: Q01DX009 (ip), vehicle: saline with Tween-80): 108 % of control
- T/C (dose: 1.32 mg/kg/injection, schedule: Q01DX009 (ip), vehicle: saline with Tween-80): 112 % of control
- T/C (dose: 2.0 mg/kg/injection, schedule: Q01DX009 (ip), vehicle: saline with Tween-80): 116 % of control
- T/C (dose: 12.5 mg/kg/injection, schedule: Q01DX009 (ip), vehicle: saline with Tween-80): 150 % of control
- T/C [5]: 163 % of control
- T/C (dose: 44.0 mg/kg/injection, schedule: Q04DX003 (ip), vehicle: saline sonified): 122 % of control
- T/C [2]: 159 % of control
- T/C (dose: 66.0 mg/kg/injection, schedule: Q04DX003 (ip), vehicle: saline sonified): 111 % of control
- T/C (dose: 100.0 mg/kg/injection, schedule: Q01DX009 (ip), vehicle: saline sonified): 240 % of control
- T/C [1]: 111 % of control
- T/C (dose: 150.0 mg/kg/injection, schedule: Q04DX003 (ip), vehicle: saline sonified): 122 % of control
- T/C (dose: 200.0 mg/kg/injection, schedule: Q01DX009 (ip), vehicle: saline sonified): 95 % of control
- T/C (dose: 400.0 mg/kg/injection, schedule: Q01DX009 (ip), vehicle: saline sonified): 90 % of control

Compound: OCc1ccccc1F
- T/C [3]: 88 % of control
- T/C [6]: 100 % of control
- T/C [4]: 103 % of control
- T/C [7]: 109 % of control
- T/C [8]: 111 % of control

Compound: O=C1OC(=O)c2c(Br)c(Br)c(Br)c(Br)c21
- T/C [5]: 109 % of control
- T/C (dose: 56.25 mg/kg/injection, schedule: Q01DX009 (ip), vehicle: saline with Tween-80): 90 % of control
- T/C (dose: 75.0 mg/kg/injection, schedule: Q01DX009 (ip), vehicle: saline with Tween-80): 113 % of control
- T/C (dose: 150.0 mg/kg/injection, schedule: Q01DX009 (ip), vehicle: saline with Tween-80): 109 % of control

Compound: [OH-].[OH-].[Pd+2].c1ccc(CSc2ncnc3nc[nH]c23)cc1.c1ccc(CSc2ncnc3nc[nH]c23)cc1.c1ccc(CSc2ncnc3nc[nH]c23)cc1.c1ccc(CSc2ncnc3nc[nH]c23)cc1
- T/C [3]: 90 % of control
- T/C [6]: 90 % of control
- T/C [4]: 90 % of control
- T/C [7]: 90 % of control
- T/C [8]: 90 % of control

Compound: CC(C(=O)O)C(=O)O.[NH-]C1CCCCC1[NH-].[Pt+2]
- T/C (dose: 50.0 mg/kg/injection, schedule: Q04DX002 (ip), vehicle: Klucel (hydroxypropylcellulose) (HPC)): 150 % of control
- T/C (dose: 200.0 mg/kg/injection, schedule: Q04DX002 (ip), vehicle: Klucel (hydroxypropylcellulose) (HPC)): 203 % of control

Compound: O=C1C(Br)=Cc2cccc3cccc1c23
- T/C [5]: 111 % of control
- T/C [2]: 105 % of control
- T/C [3]: 107 % of control
- T/C [6]: 95 % of control
- T/C [4]: 230 % of control and 107 % of control
- T/C [7]: 104 % of control
- T/C [8]: 100 % of control
- T/C [9]: 104 % of control

Compound: CC12COC(=O)CC1CCC1C2CCC2(C)C1CCC2(C)O (stereo not drawn)
- T/C [2]: 90 % of control
- T/C [3]: 95 % of control
- T/C [4]: 100 % of control

Compound: CCCCCCCCCCN1CCOCCOCCN(CCCCCCCCCC)CCOCCOCC1
- T/C (dose: 1.56 mg/kg/injection, schedule: Q01DX005 (ip), vehicle: saline with Tween-80): 113 % of control
- T/C (dose: 3.13 mg/kg/injection, schedule: Q01DX005 (ip), vehicle: saline with Tween-80): 103 % of control
- T/C (dose: 6.25 mg/kg/injection, schedule: Q01DX005 (ip), vehicle: saline with Tween-80): 113 % of control

Compound: Cc1[nH]c(=O)[nH]c(=O)c1NCCO
- T/C (dose: 50.0 mg/kg/injection, schedule: Q01DX009 (ip), vehicle: water): 102 % of control
- T/C (dose: 100.0 mg/kg/injection, schedule: Q01DX009 (ip), vehicle: water): 109 % of control
- T/C (dose: 200.0 mg/kg/injection, schedule: Q01DX009 (ip), vehicle: water): 105 % of control
- T/C (dose: 400.0 mg/kg/injection, schedule: Q01DX009 (ip), vehicle: water): 112 % of control

Compound: CCOC(=O)NC1=C(N2CC2)C(=O)C(NC(=O)OCC)=C(N2CC2)C1=O
- T/C (dose: 0.78 mg/kg/injection, schedule: Q01DX009 (ip), vehicle: saline): 199 % of control and 211 % of control and 212 % of control
- T/C (dose: 1.56 mg/kg/injection, schedule: Q01DX009 (ip), vehicle: saline): 235 % of control and 238 % of control and 212 % of control
- T/C (dose: 3.12 mg/kg/injection, schedule: Q01DX009 (ip), vehicle: saline): 100 % of control

Compound: Cn1c(=O)c(-c2ccccc2)[n+]([O-])c2ccccc21
- T/C [5]: 98 % of control
- T/C [2]: 107 % of control
- T/C [3]: 100 % of control
- T/C [4]: 113 % of control

Compound: COc1ccc(OP2OCC(C)O2)cc1 (stereo not drawn)
- T/C [2]: 103 % of control
- T/C [3]: 102 % of control
- T/C [4]: 102 % of control

Compound: COc1ccc(CC(Cc2ccc(OC)c(OC)c2)NC=O)cc1OC
- T/C [3]: 99 % of control
- T/C [6]: 101 % of control
- T/C [4]: 91 % of control
- T/C [7]: 102 % of control
- T/C [8]: 87 % of control
- T/C [9]: 116 % of control

Compound: COC(OC)C1(O)CC(C(C)/C=C(/C)C(CC(=O)N(C)c2ccccc2)OCc2ccccc2)OC(=O)N1 (stereo not drawn)
- T/C [10]: 99 % of control
- T/C [11]: 109 % of control
- T/C [12]: 118 % of control

Compound: CC(=O)n1nc(Cl)c2ccc([N+](=O)[O-])cc21
- T/C [2]: 97 % of control
- T/C [3]: 100 % of control
- T/C [4]: 100 % of control

Compound: COc1cc2c(c(OC)c1OC)-c1cc(I)c(O)cc1[C@@H](NC(C)=O)CC2
- T/C (dose: 2.75 mg/kg/injection, schedule: Q04DX003 (ip), vehicle: saline with Tween-80): 110 % of control
- T/C (dose: 5.5 mg/kg/injection, schedule: Q04DX003 (ip), vehicle: saline with Tween-80): 104 % of control
- T/C (dose: 11.0 mg/kg/injection, schedule: Q04DX003 (ip), vehicle: saline with Tween-80): 155 % of control
- T/C (dose: 22.0 mg/kg/injection, schedule: Q04DX003 (ip), vehicle: saline with Tween-80): 160 % of control
- T/C (dose: 66.0 mg/kg/injection, schedule: Q04DX003 (ip), vehicle: saline with Tween-80): 185 % of control and 222 % of control
- T/C [6]: 180 % of control and 194 % of control
- T/C (dose: 150.0 mg/kg/injection, schedule: Q04DX003 (ip), vehicle: saline with Tween-80): 205 % of control

Compound: O=C=Nc1ccc(CCc2ccc(N=C=O)cc2)cc1
- T/C [2]: 110 % of control
- T/C [3]: 120 % of control

Compound: C#CCOC(=O)Nc1ccccc1Cl
- T/C (dose: 50.0 mg/kg/injection, schedule: Q01DX009 (ip), vehicle: Klucel (hydroxypropylcellulose) (HPC)): 110 % of control
- T/C [10]: 100 % of control
- T/C (dose: 100.0 mg/kg/injection, schedule: Q01DX009 (ip), vehicle: Klucel (hydroxypropylcellulose) (HPC)): 100 % of control
- T/C [11]: 109 % of control
- T/C (dose: 200.0 mg/kg/injection, schedule: Q01DX009 (ip), vehicle: Klucel (hydroxypropylcellulose) (HPC)): 100 % of control
- T/C [12]: 109 % of control

Compound: ClC1C(Cl)C2CC1C1OC21 (stereo not drawn)
- T/C (dose: 50.0 mg/kg/injection, schedule: Q01DX009 (ip), vehicle: other): 101 % of control
- T/C (dose: 100.0 mg/kg/injection, schedule: Q01DX009 (ip), vehicle: other): 100 % of control
- T/C (dose: 200.0 mg/kg/injection, schedule: Q01DX009 (ip), vehicle: other): 100 % of control
